Test results from patent US11339171B2, “MDM2 inhibitors” (Gan & Lee Pharmaceuticals, priority 2017, dated 2022).

Legend:
[1] = system: human osteosarcoma cell line SJSA-1; assay: Inhibition of proliferation of human osteosarcoma cell line SJSA-1 (DAPI staining, In Cell Analyzer); conditions: Homo sapiens, SJSA-1, 72 h, read-out: IC50 (nM), inhibitory activity on proliferation of human osteosarcoma cell line SJSA-1, SJSA-1, incubated 72 h
MDM2 = biological target: T1, MDM2 (Homo sapiens, UniProt Q00987); assay: Inhibition test of MDM2-P53 (GST-MDM2, Biotin-P53, Anti-GST-Tb, SA-XL665); format: binding
T1 construct: made in house
Procedure, shortened: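 HTRF-type assay using 4 nM GST-MDM2 (final), Biotin-P53, SA-XL665 and anti-GST-Tb in PBS with 0.1% BSA, 5 mM DTT and 1 mM AEBSF. Compounds in 5-fold serial dilutions over twelve points; incubation 90 min at 25° C with shaking before plate-reader read-out.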

T1 sequence (Q00987 whole entry): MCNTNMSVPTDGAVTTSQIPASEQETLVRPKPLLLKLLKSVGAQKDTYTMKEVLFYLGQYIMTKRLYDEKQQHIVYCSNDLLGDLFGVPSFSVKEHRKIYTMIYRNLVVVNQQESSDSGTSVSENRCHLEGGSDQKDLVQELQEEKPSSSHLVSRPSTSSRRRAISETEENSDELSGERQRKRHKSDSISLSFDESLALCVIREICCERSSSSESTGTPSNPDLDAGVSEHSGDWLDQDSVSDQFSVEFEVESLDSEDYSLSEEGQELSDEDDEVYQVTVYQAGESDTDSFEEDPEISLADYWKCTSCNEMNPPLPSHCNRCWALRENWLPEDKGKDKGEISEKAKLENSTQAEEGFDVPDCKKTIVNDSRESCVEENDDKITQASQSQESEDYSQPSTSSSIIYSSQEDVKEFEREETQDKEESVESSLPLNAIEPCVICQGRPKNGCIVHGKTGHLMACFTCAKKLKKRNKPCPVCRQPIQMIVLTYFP

Work on `COc1nc(C)ncc1-c1nc2c(n1C(C)C)[C@@]1(C(=O)Nc3cc(Cl)ccc31)N(c1cc(Cl)ccc1C)C2=O` [Example S-118, (S)-6-chloro-5′-(5-chloro-2-methylphenyl)-3′-isopropyl-2′-(4-methoxy-2-methylpyrimidin-5-yl)-3′H-spiro[dihydroindole-3,4′-pyrrolo[3,4-d]imidazole]-2,6′(5′H)-dione] yielded an IC50 [1] of 107 nM and an IC50 (MDM2) of 3.51 nM.
With `CCN(C)c1ncc(-c2nc3c(n2C(C)C)[C@@]2(C(=O)Nc4cc(Cl)ccc42)N(c2cc(Cl)ccc2C)C3=O)c(OC)n1` [Example S-119, (S)-6-chloro-5′-(5-chloro-2-methylphenyl)-2′-(2-(ethyl(methyl)amino)-4-methoxypyrimidin-5-yl)-3′-isopropyl-3′H-spiro[dihydroindole-3,4′-pyrrolo[3,4-d]imidazole]-2,6′(5′H)-dione] the IC50 [1] was 20 nM and the IC50 (MDM2) was 2.39 nM.
With `COc1cc(OC(F)(F)F)ccc1-c1nc2c(n1C(C)C)[C@@]1(C(=O)Nc3cc(Cl)ccc31)N(c1cccc(Cl)c1)C2=O` [Example S-120, (S)-6-chloro-5′-(3-chlorophenyl)-3′-isopropyl-2′-(2-methoxy-4-(trifluoromethoxy)phenyl)-3′H-spiro[dihydroindole-3,4′-pyrrolo[3,4-d]imidazole]-2,6′(5′H)-dione] the IC50 [1] was 364 nM and the IC50 (MDM2) was 9.01 nM.
Molecule `COc1nc(C2CC2)ncc1-c1nc2c(n1C(C)C)[C@@]1(C(=O)Nc3cc(Cl)ccc31)N(c1cccc(Cl)c1)C2=O` [Example S-122, (S)-6-chloro-5′-(3-chlorophenyl)-2′-(2-cyclopropyl-4-methoxypyrimidin-5-yl)-3′-isopropyl-3′H-spiro[dihydroindole-3,4′-pyrrolo[3,4-d]imidazole]-2,6′(5′H)-dione] has an IC50 [1] of 117 nM and an IC50 (MDM2) of 2.76 nM.
`CCOc1ncc(-c2nc3c(n2C(C)C)[C@@]2(C(=O)Nc4cc(Cl)ccc42)N(c2cccc(Cl)c2)C3=O)c(OC)n1` [Example S-123, (S)-6-chloro-5′-(3-chlorophenyl)-2′-(2-ethoxy-4-methoxypyrimidin-5-yl)-3′-isopropyl-3′H-spiro[dihydroindole-3,4′-pyrrolo[3,4-d]imidazole]-2,6′(5′H)-dione] was tested, and the IC50 [1] was 321 nM and the IC50 (MDM2) was 2.11 nM.
For `COc1nc(OC(C)C)ncc1-c1nc2c(n1C(C)C)[C@@]1(C(=O)Nc3cc(Cl)ccc31)N(c1cccc(Cl)c1)C2=O` [Example S-124, (S)-6-chloro-5′-(3-chlorophenyl)-2′-(2-isopropoxy-4-methoxypyrimidin-5-yl)-3′-isopropyl-3′H-spiro[dihydroindole-3,4′-pyrrolo[3,4-d]imidazole]-2,6′(5′H)-dione], the IC50 [1] was 129 nM and the IC50 (MDM2) was 2.91 nM.
Molecule `COc1nc(OC(C)C)ncc1-c1nc2c(n1C(C)C)[C@@]1(C(=O)Nc3cc(Cl)ccc31)N(c1cc(Cl)ccc1C)C2=O` [Example S-126, (S)-6-chloro-5′-(5-chloro-2-methylphenyl)-2′-(2-isopropoxy-4-methoxypyrimidin-5-yl)-3′-isopropyl-3′H-spiro[dihydroindole-3,4′-pyrrolo[3,4-d]imidazole]-2,6′(5′H)-dione] has an IC50 [1] of 79.6 nM and an IC50 (MDM2) of 1.52 nM.
`CCOc1ncc(-c2nc3c(n2C(C)C)[C@@]2(C(=O)Nc4cc(Cl)ccc42)N(c2cc(Cl)ccc2C)C3=O)c(OC)n1` [Example S-127, (S)-6-chloro-5′-(5-chloro-2-methylphenyl)-2′-(2-ethoxy-4-methoxypyrimidin-5-yl)-3′-isopropyl-3′H-spiro[dihydroindole-3,4′-pyrrolo[3,4-d]imidazole]-2,6′(5′H)-dione] showed an IC50 [1] of 83.2 nM and an IC50 (MDM2) of 2.76 nM.
Work on `COc1cc(C#N)ccc1-c1nc2c(n1C(C)C)[C@@]1(C(=O)Nc3cc(Cl)ccc31)N(c1cccc(Cl)c1)C2=O` [Example S-128, (S)-4-(6-chloro-5′-(3-chlorophenyl)-3′-isopropyl-2,6′-dioxo-5′,6′-dihydro-3′H-spiro[dihydroindole-3,4′-pyrrolo[3,4-d]imidazole]-2′-yl)-3-methoxybenzonitrile] yielded an IC50 [1] of 145 nM and an IC50 (MDM2) of 1.09 nM.
For `COc1cc(C(F)(F)F)ccc1-c1nc2c(n1C(C)C)[C@@]1(C(=O)Nc3cc(Cl)ccc31)N(c1cccc(Cl)c1)C2=O` [Example S-129, (S)-6-chloro-5′-(3-chlorophenyl)-3′-isopropyl-2′-(2-methoxy-4-(trifluoromethyl)phenyl)-3′H-spiro[dihydroindole-3,4′-pyrrolo[3,4-d]imidazole]-2,6′(5′H)-dione], the IC50 [1] was 146 nM and the IC50 (MDM2) was 3.84 nM.
In the case of `COc1nc(OC(C)C)ncc1-c1nc2c(n1C(C)C)[C@@]1(C(=O)Nc3cc(Cl)ccc31)N(c1cc(Cl)cnc1C)C2=O` [Example S-136, (S)-6-chloro-5′-(5-chloro-2-methylpyridin-3-yl)-2′-(2-isopropoxy-4-methoxypyrimidin-5-yl)-3′-isopropyl-3′H-spiro[dihydroindole-3,4′-pyrrolo[3,4-d]imidazole]-2,6′(5′H)-dione], the IC50 [1] is reported as 108 nM and the IC50 (MDM2) is reported as 2.35 nM.
`CCOc1cc(OC)c(-c2nc3c(n2C(C)C)[C@@]2(C(=O)Nc4cc(Cl)ccc42)N(c2cc(F)cc(Cl)c2)C3=O)cn1` [Example S-139, (S)-6-chloro-5′-(3-chloro-5-fluorophenyl)-2′-(6-ethoxy-4-methoxypyridin-3-yl)-3′-isopropyl-3′H-spiro[dihydroindole-3,4′-pyrrolo[3,4-d]imidazole]-2,6′(5′H)-dione] gave an IC50 [1] of 50.7 nM and an IC50 (MDM2) of 1.36 nM.
Molecule `COc1nc(OCC(F)(F)F)ncc1-c1nc2c(n1C(C)C)[C@@]1(C(=O)Nc3cc(Cl)ccc31)N(c1cc(Cl)ccc1C)C2=O` [Example S-141, (S)-6-chloro-5′-(5-chloro-2-methylphenyl)-3′-isopropyl-2′-(4-methoxy-2-(2,2,2-trifluoroethoxy)pyrimidin-5-yl)-3′H-spiro[dihydroindole-3,4′-pyrrolo[3,4-d]imidazole]-2,6′(5′H)-dione] has an IC50 [1] of 73.6 nM and an IC50 (MDM2) of 3.42 nM.
Molecule `COc1cc(C(F)(F)F)ncc1-c1nc2c(n1C(C)C)[C@@]1(C(=O)Nc3cc(Cl)ccc31)N(c1cccc(Cl)c1)C2=O` [Example S-142, (S)-6-chloro-5′-(3-chlorophenyl)-3′-isopropyl-2′-(4-methoxy-6-(trifluoromethyl)pyridin-3-yl)-3′H-spiro[dihydroindole-3,4′-pyrrolo[3,4-d]imidazole]-2,6′(5′H)-dione] has an IC50 [1] of 138 nM and an IC50 (MDM2) of 1.45 nM.
Molecule `COc1cc(C2CC2)ncc1-c1nc2c(n1C(C)C)[C@@]1(C(=O)Nc3cc(Cl)ccc31)N(c1cc(Cl)cnc1C)C2=O` [Example S-143, (S)-6-chloro-5′-(5-chloro-2-methylpyridin-3-yl)-2′-(6-cyclopropyl-4-methoxypyridin-3-yl)-3′-isopropyl-3′H-spiro[dihydroindole-3,4′-pyrrolo[3,4-d]imidazole]-2,6′(5′H)-dione] has an IC50 [1] of 24.9 nM and an IC50 (MDM2) of 1.1 nM.
With `COc1cc(C(F)(F)F)ccc1-c1nc2c(n1C(C)C)[C@@]1(C(=O)Nc3cc(Cl)ccc31)N(c1cc(Cl)cnc1C)C2=O` [Example S-144, (S)-6-chloro-5′-(5-chloro-2-methylpyridin-3-yl)-3′-isopropyl-2′-(2-methoxy-4-(trifluoromethyl)phenyl)-3′H-spiro[dihydroindole-3,4′-pyrrolo[3,4-d]imidazole]-2,6′(5′H)-dione] the IC50 [1] was 101 nM and the IC50 (MDM2) was 3.84 nM.
`COc1cc(C2CC2)ccc1-c1nc2c(n1C(C)C)[C@@]1(C(=O)Nc3cc(Cl)ccc31)N(c1cc(Cl)cnc1C)C2=O` [Example S-145, (S)-6-chloro-5′-(5-chloro-2-methylpyridin-3-yl)-2′-(4-cyclopropyl-2-methoxyphenyl)-3′-isopropyl-3′H-spiro[dihydroindole-3,4′-pyrrolo[3,4-d]imidazole]-2,6′(5′H)-dione] was tested, and the IC50 [1] was 28.2 nM and the IC50 (MDM2) was 2.05 nM.
Molecule `CCOc1ccc(-c2nc3c(n2C(C)C)[C@@]2(C(=O)Nc4cc(Cl)ccc42)N(c2cc(Cl)ccc2C)C3=O)c(OC)n1` [Example S-146, (S)-6-chloro-5′-(5-chloro-2-methylphenyl)-2′-(6-ethoxy-2-methoxypyridin-3-yl)-3′-isopropyl-3′H-spiro[dihydroindole-3,4′-pyrrolo[3,4-d]imidazole]-2,6′(5′H)-dione] has an IC50 [1] of 67.8 nM and an IC50 (MDM2) of 5.44 nM.
Molecule `COc1nc(OCC(F)F)ncc1-c1nc2c(n1C(C)C)[C@@]1(C(=O)Nc3cc(Cl)ccc31)N(c1cc(Cl)ccc1C)C2=O` [Example S-147, (S)-6-chloro-5′-(5-chloro-2-methylphenyl)-2′-(2-(2,2-difluoroethoxy)-4-methoxypyrimidin-5-yl)-3′-isopropyl-3′H-spiro[dihydroindole-3,4′-pyrrolo[3,4-d]imidazole]-2,6′(5′H)-dione] has an IC50 [1] of 271 nM and an IC50 (MDM2) of 5.89 nM.
With `COc1cc(OCCO)ccc1-c1nc2c(n1C(C)C)[C@@]1(C(=O)Nc3cc(Cl)ccc31)N(c1cc(Cl)ccc1C)C2=O` [Example S-148, (S)-6-chloro-5′-(5-chloro-2-methylphenyl)-2′-(4-(2-hydroxyethoxy)-2-methoxyphenyl)-3′-isopropyl-3′H-spiro[dihydroindole-3,4′-pyrrolo[3,4-d]imidazole]-2,6′(5′H)-dione] the IC50 [1] was 71.8 nM and the IC50 (MDM2) was 1.58 nM.
`COc1nc(C(C)C)ccc1-c1nc2c(n1C(C)C)[C@@]1(C(=O)Nc3cc(Cl)ccc31)N(c1cc(Cl)ccc1C)C2=O` [Example S-149, (S)-6-chloro-5′-(5-chloro-2-methylphenyl)-3′-isopropyl-2′-(6-isopropyl-2-methoxypyridin-3-yl)-3′H-spiro[dihydroindole-3,4′-pyrrolo[3,4-d]imidazole]-2,6′(5′H)-dione] showed an IC50 [1] of 153 nM and an IC50 (MDM2) of 18.5 nM.
Molecule `COc1cc(OC(F)F)ncc1-c1nc2c(n1C(C)C)[C@@]1(C(=O)Nc3cc(Cl)ccc31)N(c1cc(Cl)ccc1C)C2=O` [Example S-150, (S)-6-chloro-5′-(5-chloro-2-methylphenyl)-2′-(6-(difluoromethoxy)-4-methoxypyridin-3-yl)-3′-isopropyl-3′H-spiro[dihydroindole-3,4′-pyrrolo[3,4-d]imidazole]-2,6′(5′H)-dione] has an IC50 [1] of 80.5 nM and an IC50 (MDM2) of 1.93 nM.
